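Exposure lasted 48 hours, with cells grown in 96-well plates and compounds tested at five concentrations. GI50 = concentration required for 50% inhibition of growth.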 The source made the active and inactive calls. No stated cut-off is given here; in the data, active = GI50 up to about 1.1 µM and inactive = higher.
Legend:
Test in all cases: growth of human tumour cells (NCI), 48 h
786-0 = system: 786-0
A498 = system: A498
A549 = system: A549
ACHN = system: ACHN
BT-549 = system: BT-549
CAKI-1 = system: CAKI-1
CCRF-CEM = system: CCRF-CEM
COLO 205 = system: COLO 205
DU-145 = system: DU-145
EKVX = system: EKVX
HCC 2998 = system: HCC 2998
HCT-116 = system: HCT-116
HCT-15 = system: HCT-15
HL-60 = system: HL-60
HOP-62 = system: HOP-62
HOP-92 = system: HOP-92
HT-29 = system: HT-29
Hs-578T = system: Hs-578T
IGROV-1 = system: IGROV-1
K562 = system: K562
KM12 = system: KM12
LOX IMVI = system: LOX IMVI
M14 = system: M14
MCF7 = system: MCF7
MDA-MB-231 = system: MDA-MB-231
MDA-MB-435 = system: MDA-MB-435
MDA-N = system: MDA-N
MOLT-4 = system: MOLT-4
Malme-3M = system: Malme-3M
NCI-H226 = system: NCI-H226
NCI-H23 = system: NCI-H23
NCI-H460 = system: NCI-H460
NCI-H522 = system: NCI-H522
NCI/ADR-RES = system: NCI/ADR-RES
OVCAR-3 = system: OVCAR-3
OVCAR-4 = system: OVCAR-4
OVCAR-5 = system: OVCAR-5
OVCAR-8 = system: OVCAR-8
PC-3 = system: PC-3
RPMI-8226 = system: RPMI-8226
SF-268 = system: SF-268
SF-295 = system: SF-295
SF-539 = system: SF-539
SK-MEL-28 = system: SK-MEL-28
SK-MEL-2 = system: SK-MEL-2
SK-MEL-5 = system: SK-MEL-5
SK-OV-3 = system: SK-OV-3
SN12C = system: SN12C
SNB-19 = system: SNB-19
SNB-75 = system: SNB-75
SR = system: SR
SW-620 = system: SW-620
T47D = system: T47D
TK-10 = system: TK-10
U-251 = system: U-251
UACC-257 = system: UACC-257
UACC-62 = system: UACC-62
UO-31 = system: UO-31

For `COC(=O)C(Cc1ccccc1)NP(=O)(O)OCC1OC(n2ccc(N)nc2=O)C(O)C1O` (stereo not drawn), the GI50 (786-0) was > 100 µM (inactive), the GI50 (A498) was > 100 µM (inactive) and the GI50 (A549) was > 100 µM (inactive). The GI50 (ACHN) was > 100 µM (inactive), the GI50 (BT-549) was > 100 µM (inactive) and the GI50 (CAKI-1) was > 100 µM (inactive). For the same compound, the GI50 (CCRF-CEM) was 50.9 µM (inactive), the GI50 (COLO 205) was > 100 µM (inactive) and the GI50 (DU-145) was > 100 µM (inactive). For the same compound, the GI50 (EKVX) was > 100 µM (inactive), the GI50 (HCC 2998) was > 100 µM (inactive) and the GI50 (HCT-116) was > 100 µM (inactive). The GI50 (HCT-15) was > 100 µM, the GI50 (HL-60) was > 100 µM (inactive) and the GI50 (HOP-62) was > 100 µM (inactive). The GI50 (HOP-92) was > 100 µM (inactive), the GI50 (HT-29) was > 100 µM (inactive) and the GI50 (Hs-578T) was > 100 µM (inactive). The GI50 (IGROV-1) was > 100 µM (inactive), the GI50 (K562) was > 100 µM (inactive) and the GI50 (KM12) was > 100 µM (inactive). For the same compound, the GI50 (LOX IMVI) was > 100 µM (inactive), the GI50 (M14) was > 100 µM (inactive) and the GI50 (MCF7) was > 100 µM (inactive). For the same compound, the GI50 (MDA-MB-231) was > 100 µM (inactive), the GI50 (MDA-MB-435) was > 100 µM (inactive) and the GI50 (MDA-N) was > 100 µM (inactive). For the same compound, the GI50 (MOLT-4) was 76 µM (inactive), the GI50 (Malme-3M) was > 100 µM (inactive) and the GI50 (NCI-H226) was > 100 µM (inactive). For the same compound, the GI50 (NCI-H23) was > 100 µM (inactive), the GI50 (NCI-H460) was > 100 µM (inactive) and the GI50 (NCI-H522) was > 100 µM (inactive). For the same compound, the GI50 (NCI/ADR-RES) was > 100 µM (inactive), the GI50 (OVCAR-3) was > 100 µM (inactive) and the GI50 (OVCAR-4) was > 100 µM (inactive). For the same compound, the GI50 (OVCAR-5) was > 100 µM (inactive), the GI50 (OVCAR-8) was > 100 µM (inactive) and the GI50 (PC-3) was > 100 µM (inactive). The GI50 (RPMI-8226) was > 100 µM (inactive), the GI50 (SF-268) was > 100 µM (inactive) and the GI50 (SF-295) was > 100 µM (inactive). For the same compound, the GI50 (SF-539) was > 100 µM (inactive), the GI50 (SK-MEL-28) was > 100 µM (inactive) and the GI50 (SK-MEL-2) was > 100 µM (inactive). For the same compound, the GI50 (SK-MEL-5) was > 100 µM (inactive), the GI50 (SK-OV-3) was > 100 µM (inactive) and the GI50 (SN12C) was > 100 µM (inactive). The GI50 (SNB-19) was > 100 µM (inactive), the GI50 (SNB-75) was > 100 µM (inactive) and the GI50 (SR) was 66.1 µM (inactive). The GI50 (SW-620) was > 100 µM (inactive), the GI50 (T47D) was > 100 µM (inactive) and the GI50 (TK-10) was 40.8 µM (inactive). For the same compound, the GI50 (U-251) was > 100 µM (inactive), the GI50 (UACC-257) was > 100 µM (inactive) and the GI50 (UACC-62) was > 100 µM (inactive). The GI50 (UO-31) was > 100 µM (inactive).

From ChEMBL document CHEMBL1201862, “PubChem BioAssay data set” (2004)
